According to ChEMBL document CHEMBL4825732, “Discovery of the Selective Protein Kinase C-θ Kinase Inhibitor, CC-90005” (J Med Chem, 2021):

Columns and labels:
[1] = Apparent permeability across apical to basolateral side in human Caco2 cells; format: ADME, cell-based; details: Caco-2
[2] = Volume of distribution at steady state in iv dosed rat; format: ADME, organism-based; details: in vivo, read-out: Vdss
[3] = Oral bioavailability in rat at 10 mg/kg; format: ADME, organism-based; details: in vivo
[4] = Oral bioavailability in mouse at 10 mg/kg; format: ADME, organism-based; details: in vivo
[5] = Oral bioavailability in dog at 10 mg/kg; format: ADME, organism-based, Canis lupus familiaris; details: in vivo

| Compound | Papp A→B [1] [×10⁻⁶ cm/s] | Vd [2] [L/kg] | bioavailability [3] [%] | bioavailability [4] [%] | bioavailability [5] [%] |
| --- | --- | --- | --- | --- | --- |
| CC1(C)[C@@H](O)C[C@H]1Nc1nc(NCc2cncnc2OCC(F)F)ncc1C#N | 11 | – | – | – | – |
| CC(C)(F)c1ncncc1CNc1ncc(C#N)c(N[C@@H]2C[C@H](O)C2(C)C)n1 | 36 | – | – | – | – |
| CC1(C)CC(Nc2cc(NCc3cnccc3C(F)(F)F)ncc2C#N)CC(C)(C)N1 | – | 27.7 | – | – | – |
| CC(F)(F)COc1ncncc1CNc1ncc(C#N)c(N[C@@H]2CC[C@H](O)C(C)(C)C2)n1 | 27 | – | 66 | 17 | 46 |
